Drawing on patent US9409961B2, “Cell penetrating peptides to target EIF4E” (Hoffmann-La Roche Inc., priority 2012, dated 2016), this text covers IC50 for 24 molecules.

Like-named read-outs stand apart in the source and are kept apart here. Square brackets hold non-standard residues; d marks the D form. Peptide text beside a SMILES is read from it. tBuAla = CC(C)(C)C[C@H](N)C(=O)O; Nle = CCCC[C@H](N)C(=O)O

This test addresses T1, human eIF4E (Homo sapiens, UniProt P06730).
T1 construct: made in house
Put plainly: biochemical assay of peptide binding to human eIF4E (displacement of biotin labeled 4G2 peptide). As for the experimental part: A biochemical assay was run to test peptide binding to human eIF4E.
Human eIF4E (aa 28-217, SEQ ID NO: 87) with a C-terminal His tag (HH-eIF4E, SEQ ID NO: 88) was expressed in E. coli in inclusion bodies. The protein was solubilized with 8 M urea and purified under denaturing conditions using nickel-charged HisTrap HP columns (GE Healthcare). The protein was refolded by diluting to approximately 0.25 mg/mL with 6 M urea, 20 mM Hepes pH 7.0, 500 mM NaCl, 1 mM DTT, 1 mM EDTA, and 0.5 M arginine.HCl, and then dialyzing overnight into the same buffer without the urea. The protein was further dialyzed into 20 mM Hepes pH 6.5, 50 mM NaCl, 1 mM EDTA, and 1 mM DTT, filtered, and then concentrated using Hitrap SP sepharose FF columns (GE Healthcare). The protein was dialyzed into 20 mM Hepes pH 7.0, 500 mM NaCl, 5 mM DTT, and 10% glycerol and stored at −80° C. until use.
Test peptides (1.6 mM stock in DMSO) were diluted 3 fold in series in DMSO and solutions were diluted 4 fold in Assay Buffer (50 mM NaPi, pH 6.5, 50 mM KCl, 1 mM DTT, 0.004% NP40 and 0.5 mg/ml gammaglobulin). Six microliters per well of diluted peptide solutions and 12 microliters per well of 187.5 nM HH-eIF4E in Assay Buffer were added to 384-well polypropylene microplates (Matrix, Thermal Scientific). Twelve microliters per well of 187.5 nM biotin labeled 4G2 peptide (Ac-[…]Aha-Bio)-NH2 (SEQ ID NO: 91) 1:2 TFA) in Assay Buffer was added. The samples were incubated at room temperature for 20 minutes.
Six microliters per well of 4.8 nM Eu-streptavidin (Columbia Biosciences) and 48 nM Allophycocyanin-anti His antibody (Columbia Biosciences) in Assay Buffer (without DTT) were then added and the samples were incubated at room temperature for 30 min. Assay signals were monitored by reading emission fluorescence at 665 nm on an Envision Reader (PerkinElmer Life and Analytical Sciences). IC50 values were calculated using Condoseo software (Genedata AG, Basel, Switzerland).

Where [1] appears, read: IC50 (μM), Table 2a, cell penetrating peptides with the Y----LL-F and YWLLALFVY motifs.
The mark [2] stands for this setting: IC50 (μM), Table 3, cell-penetrating peptides without the Y----LL-F motif.
Where [3] appears, read: Table 1, peptides which bind eIF4E but are not cell-penetrating, read-out: IC50.
Where [4] appears, read: IC50 (μM), Table 2, cell-penetrating peptides with the Y----LL-F motif.

T1 sequence (P06730 with tags, fused parts or gaps): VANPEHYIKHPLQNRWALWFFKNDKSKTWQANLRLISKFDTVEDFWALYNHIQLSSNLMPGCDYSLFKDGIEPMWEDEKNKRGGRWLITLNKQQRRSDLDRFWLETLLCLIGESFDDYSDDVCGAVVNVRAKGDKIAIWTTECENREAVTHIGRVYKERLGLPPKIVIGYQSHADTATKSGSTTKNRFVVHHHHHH

As a reminder, the IC50 is the concentration needed to halve the response being measured. On to `CCCC[C@H](NC(=O)[C@H](Cc1ccccc1)NC(=O)[C@H](CCC(N)=O)NC(=O)[C@H](Cc1ccccc1)NC(=O)[C@H](C)NC(=O)[C@H](CC(C)C)NC(=O)[C@H](CC(C)C)NC(=O)[C@H](Cc1ccccc1)NC(=O)[C@H](CCC(=O)O)NC(=O)[C@H](CCCNC(=N)N)NC(=O)[C@H](CC(=O)O)NC(=O)[C@H](Cc1ccc(O)cc1)NC(=O)[C@H](CCCNC(=N)N)NC(=O)[C@H](CCCCN)NC(C)=O)C(=O)N[C@H](C(=O)N[C@@H](Cc1ccc(O)cc1)C(=O)N[C@@H](CC(=O)O)C(=O)N[C@@H](CC(C)C)C(=O)NCC(=O)N[C@@H](CC(C)C)C(=O)N[C@@H](CCCNC(=N)N)C(=O)N[C@@H](CCCNC(=N)N)C(=O)N[C@@H](CC(C)C)C(=O)N[C@@H](CCCNC(=N)N)C(=O)N[C@@H](CCC(N)=O)C(=O)N[C@@H](CCCNC(=N)N)C(=O)N[C@@H](CCCNC(=N)N)C(=O)N[C@@H](CCCNC(=N)N)C(=O)N[C@@H](CC(C)C)C(=O)N[C@@H](CCCNC(=N)N)C(=O)N[C@@H](CCCNC(=N)N)C(N)=O)C(C)C` [SEQ ID NO: 7] (Ac-KRYDREFLLAFQF[Nle]VYDLGLRRLRQRRRLRR-NH2), for which, under “HH-eIF4E, biotin labeled 4G2 peptide, read-out: Binding affinities expressed as IC50”, the IC50 was 0.21 µM.
Under setting [1], `CCCC[C@H](NC(=O)[C@H](CC(C)C)NC(=O)[C@H](CC(=O)O)NC(=O)[C@@H](NC(=O)[C@H](Cc1c[nH]c2ccccc12)NC(=O)[C@H](CCSC)NC(=O)[C@H](Cc1ccc(O)cc1)NC(=O)[C@@H](NC(=O)[C@H](Cc1ccccc1)NC(=O)[C@H](CC(C)C)NC(=O)[C@H](C)NC(=O)[C@H](CC(C)C)NC(=O)[C@H](CC(C)C)NC(=O)[C@H](Cc1c[nH]c2ccccc12)NC(=O)[C@H](Cc1ccc(O)cc1)NC(=O)[C@H](C)NC(=O)[C@H](CC(C)C)NC(=O)[C@H](C)NC(=O)[C@H](C)NC(=O)[C@H](CCSC)NC(C)=O)C(C)C)[C@@H](C)O)C(=O)N[C@@H](CC(C)C)C(=O)N[C@@H](Cc1ccccc1)C(=O)N[C@@H](CCCCN)C(=O)N[C@@H](CCCCN)C(=O)N[C@@H](CCCNC(=N)N)C(=O)N1CCC[C@H]1C(=O)N[C@@H](CCCCN)C(=O)N1CCC[C@H]1C(N)=O` [SEQ ID NO: 28] (Ac-MAALAYWLLALFVYMWTDL[Nle]LFKKRPKP-NH2) had a half-inhibitory concentration (IC50) of 4.59 µM.
For the molecule `CCCC[C@H](NC(=O)[C@H](CC(C)C)NC(=O)[C@H](CC(=O)O)NC(=O)[C@@H](NC(=O)[C@H](Cc1c[nH]c2ccccc12)NC(=O)[C@H](CCSC)NC(=O)[C@H](Cc1ccc(O)cc1)NC(=O)[C@@H](NC(=O)[C@H](Cc1ccccc1)NC(=O)[C@H](CC(C)C)NC(=O)[C@H](C)NC(=O)[C@H](CC(C)C)NC(=O)[C@H](CC(C)C)NC(=O)[C@H](Cc1c[nH]c2ccccc12)NC(=O)[C@H](Cc1ccc(O)cc1)NC(=O)[C@H](CCCCN)NC(=O)[C@H](CC(C)C)NC(=O)[C@H](CCCCN)NC(=O)[C@H](C)NC(=O)[C@H](CCSC)NC(C)=O)C(C)C)[C@@H](C)O)C(=O)N[C@@H](CC(C)C)C(=O)N[C@@H](Cc1ccccc1)C(=O)N[C@@H](CCCCN)C(=O)N[C@@H](CCCCN)C(=O)N[C@@H](CCCNC(=N)N)C(=O)N1CCC[C@H]1C(=O)N[C@@H](CCCCN)C(=O)N1CCC[C@H]1C(N)=O` [SEQ ID NO: 29] (Ac-MAKLKYWLLALFVYMWTDL[Nle]LFKKRPKP-NH2), the half-inhibitory concentration (IC50) under setting [1] was determined as 7.39 µM.
Still for that read-out and setting: with `CSCC[C@H](NC(=O)[C@H](Cc1ccc(O)cc1)NC(=O)[C@@H](NC(=O)[C@H](Cc1ccccc1)NC(=O)[C@H](CC(C)C)NC(=O)[C@H](C)NC(=O)[C@H](CC(C)C)NC(=O)[C@H](CC(C)C)NC(=O)[C@H](Cc1c[nH]c2ccccc12)NC(=O)[C@H](Cc1ccc(O)cc1)NC(=O)[C@H](C)NC(=O)[C@H](CC(C)C)NC(C)=O)C(C)C)C(=O)N[C@@H](Cc1c[nH]c2ccccc12)C(=O)N[C@H](C(=O)N[C@@H](CC(=O)O)C(=O)N[C@@H](CC(C)C)C(=O)N[C@@H](CCCNC(=N)N)C(=O)N[C@@H](CC(C)C)C(=O)N[C@@H](CC(C)(C)C)C(=O)N[C@@H](CCCCN)C(=O)N[C@@H](CCCCN)C(=O)N[C@@H](CCCNC(=N)N)C(=O)N1CCC[C@H]1C(=O)N[C@@H](CCCCN)C(=O)N1CCC[C@H]1C(N)=O)[C@@H](C)O` [SEQ ID NO: 32] (Ac-LAYWLLALFVYMWTDLRL[tBuAla]KKRPKP-NH2) the figure was 4.73 µM; with `CCCC[C@H](NC(=O)[C@H](Cc1ccc(O)cc1)NC(=O)[C@@H](NC(=O)[C@H](Cc1ccccc1)NC(=O)[C@H](CC(C)C)NC(=O)[C@H](C)NC(=O)[C@H](CC(C)C)NC(=O)[C@H](CC(C)C)NC(=O)[C@H](Cc1c[nH]c2ccccc12)NC(=O)[C@H](Cc1ccc(O)cc1)NC(=O)[C@H](C)NC(=O)[C@H](CC(C)C)NC(=O)[C@H](CC(N)=O)NC(=O)[C@H](C)NC(=O)[C@H](CCSC)NC(C)=O)C(C)C)C(=O)N[C@@H](Cc1c[nH]c2ccccc12)C(=O)N[C@H](C(=O)N[C@@H](CC(=O)O)C(=O)N[C@@H](CC(C)C)C(=O)N[C@@H](CCCNC(=N)N)C(=O)N[C@@H](CC(C)C)C(=O)N[C@@H](Cc1ccccc1)C(=O)N[C@@H](CCCCN)C(=O)N[C@@H](CCCCN)C(=O)N[C@@H](CCCNC(=N)N)C(=O)N1CCC[C@H]1C(=O)N[C@@H](CCCCN)C(=O)N1CCC[C@H]1C(N)=O)[C@@H](C)O` [SEQ ID NO: 39] (Ac-MANLAYWLLALFVY[Nle]WTDLRLFKKRPKP-NH2), 1.75 µM.
Consider `CCCC[C@H](NC(=O)[C@H](CC(C)C)NC(=O)[C@H](CO)NC(=O)[C@H](C)NC(=O)[C@@H](NC(=O)[C@H](CCCCN)NC(=O)[C@H](Cc1ccc(O)cc1)NC(=O)[C@H](CCCCN)NC(=O)[C@@H](NC(=O)[C@H](CCSC)NC(C)=O)C(C)C)[C@@H](C)CC)C(=O)N[C@@H](CC(C)C)C(=O)N[C@@H](Cc1ccccc1)C(=O)N[C@@H](CC(C)C)C(=O)N[C@@H](Cc1ccccc1)C(=O)N[C@H](C(=O)N[C@@H](C)C(=O)N[C@@H](CCSC)C(=O)N[C@@H](Cc1c[nH]c2ccccc12)C(=O)N[C@@H](CO)C(=O)N[C@@H](CC(=O)O)C(=O)N[C@H](C(=O)N[C@@H](C)C(=O)N[C@@H](CC(C)C)C(=O)N[C@@H](C)C(=O)N[C@@H](CCCCN)C(=O)N[C@@H](CCCCN)C(=O)N[C@@H](CCCNC(=N)N)C(=O)N1CCC[C@H]1C(=O)N[C@@H](CCCCN)C(=O)N1CCC[C@H]1C(N)=O)C(C)C)C(C)C` [SEQ ID NO: 45] (Ac-MVKYKIASL[Nle]LFLFVAMWSDVALAKKRPKP-NH2), for which the IC50 under setting [2] is 3.06 µM.
Consider `CCCC[C@H](NC(=O)[C@H](Cc1ccccc1)NC(=O)[C@H](CCC(N)=O)NC(=O)[C@H](Cc1ccccc1)NC(=O)[C@H](C)NC(=O)[C@H](CC(C)C)NC(=O)[C@H](CC(C)C)NC(=O)[C@H](Cc1ccccc1)NC(=O)[C@H](CCC(=O)O)NC(=O)[C@H](CCCNC(=N)N)NC(=O)[C@H](CC(=O)O)NC(=O)[C@H](Cc1ccccc1)NC(=O)[C@H](CCCNC(=N)N)NC(=O)[C@H](CCCCN)NC(C)=O)C(N)=O` [SEQ ID NO: 84] (Ac-KRFDREFLLAFQF[Nle]-NH2), for which, under setting [3], the IC50 was 4.07 µM.
Turning to “Ac-ANLAYWLLALFVYMWTDLRLFKKRPKP-NH2 [SEQ ID NO: 34]”, the IC50 under setting [1] worked out at 2.22 µM.
The molecule “Ac-AYWLLALFVYMWTDLRLFKKRPKP-NH2 [SEQ ID NO: 36]” had an IC50 under setting [1] of 2.53 µM.
As for “Ac-GAAEAAAYVYDLLLRFLRQRRRLRRERVRA-NH2 [SEQ ID NO: 25]”, the IC50 (Table 2, cell-penetrating peptides with the Y----LL-F motif, read-out: IC50) came out at 11 µM.
As for Ac-KQYDREFLLDFQFMPA-NH2 [SEQ ID NO: 52], under setting [3], the IC50 was 10.5 µM.
“Ac-LAYWLLALFVAMWTDLRLFKKRPKP-NH2 [SEQ ID NO: 49]” gave an IC50 under setting [2] of 1.99 µM.
With “Ac-LAYWLLALFVYMWTDLRLAKKRPKP-NH2 [SEQ ID NO: 33]”, the IC50 under setting [1] is 6.24 µM.
The same measure, in the same setting: with “Ac-LAYWLLALFVYMWTDLRLFKKRPKP-NH2 [SEQ ID NO: 31]” the figure was 4.35 µM.
“Ac-LLALFVYMWTDLRLFKKRPKP-NH2 [SEQ ID NO: 51]” came in with an IC50 under setting [2] of 3.75 µM.
“Ac-MAALAYWLLALFVYMWTDLLLFKKRPKP-NH2 [SEQ ID NO: 27]”: under setting [1], the IC50 is 10.7 µM.
The same measure, in the same setting: with “Ac-MANLAYWLLALFVYLWTDLRLFKKRPKP-NH2 [SEQ ID NO: 38]” the figure was 3.04 µM; with “Ac-MANLAYWLLALFVYMFTDLRLFKKRPKP-NH2 [SEQ ID NO: 42]”, 3.91 µM.
As to “Ac-MANLAYWLLALFVYRWTDLRLFKKRPKP-NH2 [SEQ ID NO: 41]”, the IC50 under setting [1] turned out to be 3.48 µM.
Under setting [4], “Ac-MANLGYWLLALFVYMWTDLLLFKKRPKP-NH2 [SEQ ID NO: 16]” returned a 50% inhibitory concentration (IC50) of 3.03 µM.
The same measure, in the same setting: with “Ac-MVKSKIYSWILLLFFAMWSDVALAKKRPKP-NH2 [SEQ ID NO: 20]” the figure was 9.96 µM.
As to “Ac-MVKSKIYSWILLLFFAMWSDVGLCKKRPKP-NH2 [SEQ ID NO: 15]”, the IC50 under setting [4] was found to be 5.2 µM.
As for “Ac-MVKSKIYSWILLLFFAMWSDVKLKKKRPKP-NH2 [SEQ ID NO: 21]”, the IC50 under setting [4] stood at 6.85 µM.
Under setting [4], “Ac-MVKSKYGSWILLLFVAMWSDVGLCKKRPKP-NH2 [SEQ ID NO: 13]” registered an IC50 of 6.89 µM.
